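Test compounds were applied to cells in 96-well plates for 48 hours at 5 doses. At the GI50, growth is halved. TGI marks complete inhibition of growth.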
Columns and labels:
Assay in all cases: DTP human tumour cell line panel, 48 h
TK-10 renal = tested on: TK-10 renal
HS 578T breast = tested on: HS 578T breast
EKVX NSCLC = tested on: EKVX NSCLC
CCRF-CEM leukemia = tested on: CCRF-CEM leukemia
KM12 colon = tested on: KM12 colon
SF-539 CNS = tested on: SF-539 CNS
SK-MEL-2 melanoma = tested on: SK-MEL-2 melanoma
SK-OV-3 ovarian = tested on: SK-OV-3 ovarian
LOX IMVI melanoma = tested on: LOX IMVI melanoma
SNB-75 CNS = tested on: SNB-75 CNS

COC12C(COC(N)=O)C3=C(C(=O)C(C)=C(N)C3=O)N1CC1C2N1C (stereo not given)
TGI (TK-10 renal): 69.5 µM | TGI (HS 578T breast): 75.7 µM | TGI (EKVX NSCLC): 60.3 µM | TGI (CCRF-CEM leukemia): 51.7 µM | TGI (KM12 colon): 43.7 µM | TGI (SF-539 CNS): 46.7 µM | TGI (SK-MEL-2 melanoma): 31.2 µM | TGI (SK-OV-3 ovarian): 49 µM | TGI (LOX IMVI melanoma): 20.2 µM | TGI (SNB-75 CNS): 11.8 µM

C[C@H](Nc1cc(Cl)nc2c1cnn2[C@@H]1O[C@H](COP(=O)(O)CP(=O)(O)O)[C@@H](O)[C@H]1O)c1ccccc1F
GI50 (TK-10 renal): > 100 µM | TGI (TK-10 renal): > 100 µM | GI50 (HS 578T breast): > 100 µM | TGI (HS 578T breast): > 100 µM | GI50 (EKVX NSCLC): > 100 µM | TGI (EKVX NSCLC): > 100 µM | GI50 (CCRF-CEM leukemia): > 100 µM | TGI (CCRF-CEM leukemia): > 100 µM | GI50 (KM12 colon): > 100 µM | TGI (KM12 colon): > 100 µM | GI50 (SF-539 CNS): > 100 µM | TGI (SF-539 CNS): > 100 µM | GI50 (SK-MEL-2 melanoma): > 100 µM | TGI (SK-MEL-2 melanoma): > 100 µM | GI50 (SK-OV-3 ovarian): > 100 µM | TGI (SK-OV-3 ovarian): > 100 µM | GI50 (LOX IMVI melanoma): > 100 µM | TGI (LOX IMVI melanoma): > 100 µM | GI50 (SNB-75 CNS): > 100 µM | TGI (SNB-75 CNS): > 100 µM

CS(=O)(=O)Nc1cc(-c2ccc3ncnc(Nc4c(Cl)ccc5c4OCO5)c3c2)cnc1Cl
GI50 (TK-10 renal): 0.047 µM | TGI (TK-10 renal): 0.888 µM | GI50 (HS 578T breast): 0.0477 µM | TGI (HS 578T breast): 0.521 µM | GI50 (EKVX NSCLC): 0.116 µM | TGI (EKVX NSCLC): 0.824 µM | GI50 (CCRF-CEM leukemia): 0.15 µM | TGI (CCRF-CEM leukemia): 6.84 µM | GI50 (KM12 colon): 0.465 µM | TGI (KM12 colon): 1.87 µM | GI50 (SF-539 CNS): 0.208 µM | TGI (SF-539 CNS): 0.988 µM | GI50 (SK-MEL-2 melanoma): 0.232 µM | TGI (SK-MEL-2 melanoma): 1.04 µM | GI50 (SK-OV-3 ovarian): 0.131 µM | TGI (SK-OV-3 ovarian): 0.759 µM | GI50 (LOX IMVI melanoma): 0.172 µM | TGI (LOX IMVI melanoma): 1.08 µM | TGI (SNB-75 CNS): 0.0972 µM

Cc1cc(N(CCCNc2ccnc3cc(Cl)ccc23)Cc2ccc3c(c2)OCO3)nc(N2CCOCC2)n1
GI50 (HS 578T breast): 0.288 µM | TGI (HS 578T breast): 18.6 µM | GI50 (EKVX NSCLC): 0.299 µM | TGI (EKVX NSCLC): > 100 µM | GI50 (CCRF-CEM leukemia): 0.38 µM | TGI (CCRF-CEM leukemia): > 100 µM | GI50 (KM12 colon): 0.34 µM | TGI (KM12 colon): 25.7 µM | GI50 (SF-539 CNS): 0.251 µM | TGI (SF-539 CNS): 0.66 µM | GI50 (SK-MEL-2 melanoma): 0.207 µM | TGI (SK-MEL-2 melanoma): 0.457 µM | GI50 (LOX IMVI melanoma): 0.216 µM | TGI (LOX IMVI melanoma): 0.534 µM | GI50 (SNB-75 CNS): 0.204 µM | TGI (SNB-75 CNS): 0.626 µM

CC1(C)N=C(N)N=C(N)N1c1ccc(CCCCc2ccc(Cl)c(S(=O)(=O)F)c2)c(Cl)c1
GI50 (TK-10 renal): 12.3 µM | TGI (TK-10 renal): 48.8 µM | GI50 (HS 578T breast): 9.71 µM | TGI (HS 578T breast): 34.2 µM | GI50 (EKVX NSCLC): 2.81 µM | TGI (EKVX NSCLC): 37.7 µM | GI50 (CCRF-CEM leukemia): 0.168 µM | TGI (CCRF-CEM leukemia): 8.65 µM | GI50 (KM12 colon): 1.36 µM | TGI (KM12 colon): 7.81 µM | GI50 (SF-539 CNS): 0.542 µM | TGI (SF-539 CNS): 13 µM | GI50 (SK-MEL-2 melanoma): 2.45 µM | TGI (SK-MEL-2 melanoma): > 33.6 µM | GI50 (SK-OV-3 ovarian): 6.79 µM | TGI (SK-OV-3 ovarian): 22.2 µM | GI50 (LOX IMVI melanoma): 0.13 µM | TGI (LOX IMVI melanoma): 17.5 µM | GI50 (SNB-75 CNS): 10.4 µM | TGI (SNB-75 CNS): > 52.5 µM

CCOC(=O)/C=C/c1ccc(C#Cc2ccccc2)cc1
GI50 (TK-10 renal): > 100 µM | TGI (TK-10 renal): > 100 µM | GI50 (HS 578T breast): > 100 µM | TGI (HS 578T breast): > 100 µM | GI50 (EKVX NSCLC): 0.0608 µM | TGI (EKVX NSCLC): 43.1 µM | GI50 (CCRF-CEM leukemia): > 100 µM | TGI (CCRF-CEM leukemia): > 100 µM | GI50 (KM12 colon): > 100 µM | TGI (KM12 colon): > 100 µM | GI50 (SF-539 CNS): 1.54 µM | TGI (SF-539 CNS): > 100 µM | GI50 (SK-MEL-2 melanoma): > 100 µM | TGI (SK-MEL-2 melanoma): > 100 µM | GI50 (SK-OV-3 ovarian): > 100 µM | TGI (SK-OV-3 ovarian): > 100 µM | GI50 (LOX IMVI melanoma): > 100 µM | TGI (LOX IMVI melanoma): > 100 µM | GI50 (SNB-75 CNS): 31.8 µM | TGI (SNB-75 CNS): 97.1 µM
